# According to patent US20250241895A1 (GH RESEARCH IRELAND LIMITED, priority 2022, published 2025):
# Test system: patients with postpartum depression (PPD)
# Experiment: Clinical trial of inhaled 5-MeO-DMT in postpartum depression
# Conditions: for BIMF functional domain Adjustment score / BIMF functional domain Infant Care score: maximum possible 12; for BIMF functional domain Mother-Child Interaction score / BIMF functional domain Self Care score / BIMF functional domain Social Support score: maximum possible 18; for BIMF functional domain Management score: maximum possible 36; for BIMF functional domain Psychological Well-being score: maximum possible 60
# Protocol: The single-arm, open-label clinical trial will involve 15 adult female patients with clinically diagnosed postpartum depression (PPD).
# The second dose (12 mg) will only be administered if: • a. […] The 6 mg dose was safe and well-tolerated according to the investigator, • c. Any psychoactive effects (PsE) of the prior dose have subsided, and • d. Pre-dose vital parameters and forced expiratory volume in one second (FEV1) are in normal range, or if outside of the normal range, are not clinically significant according to the investigator. • 3. Similarly, a third dose (18 mg) will only be administered if: • a. […] The 12 mg dose was safe and well-tolerated according to the investigator, and • c. Any PsE of the prior dose have subsided, and • d. Pre-dose vital parameters and forced expiratory volume in one second (FEV1) are in normal range, or if outside of the normal range, are not clinically significant according to the investigator.
# The patients will be assessed for a peak psychedelic experience (based on a patient-scored visual analogue scale, the PE scale), sedation, and other endpoints after dosing. Follow-up visits are planned for Day 1, and Day 7 after the dosing day.
# The following criteria must be met by all patients considered for clinical trial participation: • 1. Is female and in the age range between 18 and 45 years (inclusive) at screening. • 2. Has a body mass index (BMI) in the range of 18.5 and 35 kg/m^2 (inclusive) at screening. • 3. Meets the trial criteria for PPD as assessed by a trial psychiatrist or registered psychologist: • a. Diagnosis of Major Depressive Disorder without psychotic features, confirmed by the Mini-International Neuropsychiatric Interview (MINI), with peri-partum onset that began no earlier than gestation and no later than the first 4 weeks postpartum. • b. Has a Montgomery-Åsberg Depression Rating Scale (MADRS) total score of equal to or greater than 28 at screening and pre-dose on Day 0. • 6. […] Patients must have a negative pregnancy test at screening and on the pre-test day (Day −1). • 5. Is willing to delay start of other antidepressant or anxiety medication until after the end of the trial at Day 7 and agrees to keep any psychotherapy unchanged during the trial.
# A potential patient who meets any of the following key exclusion criteria will be excluded from participation in this trial: • 1. Has, based on history, psychiatric assessment, and evaluation of the MINI, a current or prior diagnosis of bipolar disorder, a manic or hypomanic episode, a psychotic disorder, Major Depressive Disorder (MDD) or other mood disorder with psychotic features, obsessive compulsive disorder, post-traumatic stress disorder (PTSD), autism spectrum disorder, borderline personality disorder, schizophrenia, delusional disorder, paranoid personality disorder, schizoaffective disorder, clinically significant intellectual disability, or any other psychiatric comorbidity that renders the patient unsuitable for the trial according to the investigator's judgment. • 2. Has one or more first or second degree relatives with a current or previously diagnosed bipolar disorder, psychotic disorder or other mood disorder (including MDD) with psychotic features. • 3. Is in the judgement of a trial psychiatrist or registered psychologist, at significant risk for suicide based on history, psychiatric assessment, and evaluation of suicidal ideation and suicidal behaviour based on the Columbia-Suicide Severity Rating Scale (C-SSRS). • 4. Has taken anti-depressive medication within 14 days or 5 half-lives (whichever is longer) prior to dosing (exception: within the last 5 weeks in the case of fluoxetine). • 5.
# [1] = PPD patient n=1, 6 mg then 12 mg
# [2] = PPD patient n=1, 6 mg then 12 mg, 2 hr
# [3] = PPD patient n=1, 6 mg then 12 mg, Day 1
# [4] = PPD patient n=1, 6 mg then 12 mg, Day 7
# [5] = PPD patient n=1, 6 mg then 12 mg, discharge
# [6] = PPD patient n=1, Day 7 vs Day 0
smiles,measurement,setting,value
COc1ccc2[nH]cc(CCN(C)C)c2c1 [5-MeO-DMT],tolerability of the inhalation procedure,PPD patient n=1,well tolerated with no inhalation-related adverse events
same,MADRS remission criteria (MADRS total score equal or less than 10),[1],fulfilled
same,MADRS response criteria (at least 50% improvement from baseline),[1],fulfilled
same,time to clinical remission after administration,[1],≤ 2 h
same,durability of clinical response,"PPD patient n=1, 6 mg then 12 mg given on one day",sustained over the 7-day follow-up period
same,Total MADRS improvement,[2],24
same,Total MADRS score,[2],5
same,BPRS Tension improvement,[3],5
same,Total MADRS improvement,[3],29
same,Total MADRS score,[3],0
same,BIMF item 1: I am a good mother,[4],6
same,BIMF item 2: I feel rested,[4],2
same,"BIMF item 3: I am comfortable with the way I've chosen to feed my baby (either bottle or breast, or both)",[4],6
same,BIMF item 4: My baby and I understand each other,[4],5
same,BIMF item 5: I am able to relax and enjoy time with my baby,[4],6
same,BIMF item 6: There are people in my life that I can trust to care for my baby when I need a break,[4],6
same,BIMF item 8: I am getting enough adult interaction,[4],6
same,BIMF item 9: I am getting enough encouragement from other people,[4],6
same,BIMF item 10: I trust my own feelings (instincts) when it comes to taking care of my baby,[4],6
same,BIMF item 11: I take a little time each week to do something for myself,[4],6
same,"BIMF item 12: I am taking good care of my baby's physical needs (feedings, changing diapers, doctor's appointments)",[4],6
same,"BIMF item 13: I am taking good care of my physical needs (eating, showering, etc)",[4],5
same,BIMF item 14: I make good decisions about my baby's health and well being,[4],6
same,BIMF item 15: My baby and I are getting into a routine,[4],6
same,BIMF item 16: I worry about how other people judge me (as a mother),[4],5
same,BIMF item 17: I am able to take care of my baby and my other responsibilities,[4],5
same,BIMF item 18: Anxiety or worry often interferes with my mothering ability,[4],5
same,BIMF item 20: I am satisfied with the job I am doing as a new mother,[4],5
same,Total MADRS improvement,[4],28
same,Total MADRS score,[4],1
same,BIMF functional domain Adjustment score,[4],6
same,BIMF functional domain Infant Care score,[4],12
same,BIMF functional domain Mother-Child Interaction score,[4],17
same,BIMF functional domain Self Care score,[4],13
same,BIMF functional domain Social Support score,[4],18
same,BIMF functional domain Management score,[4],33
same,BIMF functional domain Psychological Well-being score,[4],53
same,BPRS Blunted Affect score,[5],1
same,BPRS Conceptual disorganization score,[5],1
same,BPRS Disorientation score,[5],1
same,BPRS Grandiosity score,[5],1
same,BPRS Hallucinatory behaviour score,[5],1
same,BPRS Hostility score,[5],1
same,BPRS Mannerisms and Posturing score,[5],1
same,BPRS Motor retardation score,[5],1
same,BPRS Suspiciousness score,[5],1
same,BPRS Tension improvement,[5],5
same,BPRS Uncooperativeness score,[5],1
same,BPRS Unusual Thought Content score,[5],1
same,BIMF item 1: I am a good mother,"PPD patient n=1, Day 0",6
same,BIMF item 2: I feel rested,"PPD patient n=1, Day 0",0
same,"BIMF item 3: I am comfortable with the way I've chosen to feed my baby (either bottle or breast, or both)","PPD patient n=1, Day 0",6
same,BIMF item 4: My baby and I understand each other,"PPD patient n=1, Day 0",5
same,BIMF item 5: I am able to relax and enjoy time with my baby,"PPD patient n=1, Day 0",5
same,BIMF item 6: There are people in my life that I can trust to care for my baby when I need a break,"PPD patient n=1, Day 0",6
same,BIMF item 8: I am getting enough adult interaction,"PPD patient n=1, Day 0",6
same,BIMF item 9: I am getting enough encouragement from other people,"PPD patient n=1, Day 0",5
same,BIMF item 10: I trust my own feelings (instincts) when it comes to taking care of my baby,"PPD patient n=1, Day 0",5
same,BIMF item 11: I take a little time each week to do something for myself,"PPD patient n=1, Day 0",5
same,"BIMF item 12: I am taking good care of my baby's physical needs (feedings, changing diapers, doctor's appointments)","PPD patient n=1, Day 0",6
same,"BIMF item 13: I am taking good care of my physical needs (eating, showering, etc)","PPD patient n=1, Day 0",4
same,BIMF item 14: I make good decisions about my baby's health and well being,"PPD patient n=1, Day 0",6
same,BIMF item 15: My baby and I are getting into a routine,"PPD patient n=1, Day 0",5
same,BIMF item 16: I worry about how other people judge me (as a mother),"PPD patient n=1, Day 0",3
same,BIMF item 17: I am able to take care of my baby and my other responsibilities,"PPD patient n=1, Day 0",5
same,BIMF item 18: Anxiety or worry often interferes with my mothering ability,"PPD patient n=1, Day 0",2
same,"BIMF item 19: As time goes on, I am getting better at taking care of my baby","PPD patient n=1, Day 0",0
same,BIMF item 20: I am satisfied with the job I am doing as a new mother,"PPD patient n=1, Day 0",6
same,reported adverse events (cramping left abdominal pain and headache),"PPD patient n=1, Day 0","mild, short-lasting and resolved spontaneously"
same,BIMF functional domain Adjustment score,"PPD patient n=1, Day 0",5
same,BIMF functional domain Infant Care score,"PPD patient n=1, Day 0",12
same,BIMF functional domain Mother-Child Interaction score,"PPD patient n=1, Day 0",15
same,BIMF functional domain Self Care score,"PPD patient n=1, Day 0",9
same,BIMF functional domain Social Support score,"PPD patient n=1, Day 0",17
same,BIMF functional domain Management score,"PPD patient n=1, Day 0",28
same,BIMF functional domain Psychological Well-being score,"PPD patient n=1, Day 0",44
same,BIMF TOTAL score,"PPD patient n=1, Day 0, possible total 120",92
same,"BIMF total score improvement, percent","PPD patient n=1, Day 7",14%
same,"BIMF TOTAL score, Δ (Day 7)",[6],13
same,"BIMF functional domain Adjustment, % Improvement",[6],20.00%
same,"BIMF functional domain Infant Care, % Improvement",[6],0.00%
same,"BIMF functional domain Management, % Improvement",[6],18%
same,"BIMF functional domain Self Care, % Improvement",[6],44%
same,BPRS Anxiety score,"PPD patient n=1, baseline",7
same,BPRS Depressive Mood score,"PPD patient n=1, baseline",6
same,BPRS Emotional Withdrawal score,"PPD patient n=1, baseline",5
same,BPRS Excitement score,"PPD patient n=1, baseline",2
same,BPRS Guilt Feelings score,"PPD patient n=1, baseline",6
same,BPRS Somatic Concern score,"PPD patient n=1, baseline",6
same,MADRS Apparent sadness score,"PPD patient n=1, baseline",5
same,MADRS Concentration Difficulties score,"PPD patient n=1, baseline",0
same,MADRS Inability to Feel score,"PPD patient n=1, baseline",3
same,MADRS Reduced Sleep score,"PPD patient n=1, baseline",5
same,MADRS Reduced appetite score,"PPD patient n=1, baseline",0
same,MADRS Reported sadness score,"PPD patient n=1, baseline",4
same,MADRS Suicidal Thoughts score,"PPD patient n=1, baseline",0
same,Total MADRS score,"PPD patient n=1, baseline",29
same,changes in vital parameters,"PPD patient n=1, shortly after administration","temporary, clinically non-relevant increase in heart rate and blood pressure"
same,"ECG, safety laboratory analyses, CADSS","PPD patient n=1, ECG 3 hours, laboratory 7 days, CADSS 3 hours, 1 day and 7 days",unremarkable
